The results in this text go back to ChEMBL document CHEMBL4814014, “Identification of novel androgen receptor degrading agents to treat advanced prostate cancer” (Eur J Med Chem, 2021).

For one assay, the system named is CWR22R. The assay can be described thus: Antiproliferative activity against AR-positive human 22RV1 cells assessed as reduction in cell viability incubated for 3 days by MTT assay. The note with it: 22Rv1, 72 h. For orientation: Formazan colour is commonly taken as a measure of viable cells.
The test system of the next assay is DU-145. In words: Antiproliferative activity against AR-negative human DU145 cells assessed as reduction in cell viability incubated for 3 days by MTT assay. The settings on record: DU-145, 72 h.
The subject of the next assay is LNCaP. The assay can be described thus: Antiproliferative activity against AR-positive human LNCaP cells assessed as reduction in cell viability incubated for 3 days by MTT assay. The settings on record: 72 h.

Usually pIC50 stands for the IC50 on a negative log10 scale, so that one unit is a factor of ten.

SMILES strings stand for the structures. pIC50: −log10 of the molar value.

On to `CNC(=O)c1ccc(N2C(=S)N(c3ccc(C#N)c(C(F)(F)F)c3)C(=O)C2(C)C)cc1F` [ENZALUTAMIDE], for which the negative logarithm of the IC50 (pIC50) was 4.37 in the assay on CWR22R, 4.34 in the assay on DU-145 and 4.75 with LNCaP.
With `C=CC(=O)Nc1ccc(-c2cc(=O)c3c(O)cc(OC)c(OC(C)C)c3o2)cc1`, the pIC50 in the assay with CWR22R was 5.24; with DU-145, 4.83; with LNCaP it was 4.82.
